Reference: patent US10473645B2, “Methods for identifying a receptor for a ligand and uses thereof” (UNIVERSITE DE GENEVE, priority 2014, dated 2019)

Experiments:
Assay in all cases: OR transcript level by RT-qPCR after in vivo odorant exposure
Set-up in all cases: species or system mouse; key: The transcript downregulation of 21 out of the 26 olfactory receptor candidates obtained by RNAseq was confirmed by qPCR; false RNAseq positive candidates, namely OR candidates for which in fact mRNA was not downregulated following acetophenone exposure
Conditions in all cases: 5% acetophenone exposure
[1] = tested on: olfr30
Description: (§1) In vivo exposure to odorant: Starting 48 h before experiments, mice were habituated to pure DMSO on a cotton ball. 200 μl were pipetted directly onto the cotton and placed in the cage, replacing any cotton that was already in the cage for nest-making purposes.
(§2) On the day of the experiment, mice receiving odorants were transferred to a different room, where they were exposed to a cotton ball on which 200 μl of odorant diluted in pure DMSO were deposited. Exposures started in the morning between 8 and 10 am (that is two hours after lights were on) and mice were killed and dissected between 1 and 3 pm. […] If a number of different odorants were tested in the same experiment, a different overpressurized room would always be used for each odorant to avoid odor cross-contamination.
(§3) After odorant exposure, mice were killed by cervical dislocation and immediately decapitated. The main olfactory epithelia (MOE), were harvested in their entirety and transferred to a tube containing 600 μl of lysis buffer and β-mercaptoethanol (RNAeasy kit, Qiagen, following the manufacturer protocol) and a 0.5 cm diameter steel ball, and then put on ice. Samples were then homogenized using a FastPrep®-24 instrument (MP Biomedicals) at 6 m/s for 30 s and left on ice. RNA extraction was performed on all samples in parallel using the Qiagen RNeasy Mini® kit following the manufacturer's instructions. Two DNase treatments were performed on all samples: first using the Qiagen RNase-Free DNase Set® and then using the Life Technologies Ambion DNase I® kit. RNA samples were then aliquoted and stored at −80° C.
(§4) RNA concentrations were determined using an Amersham Ultrospec® 3100 Pro spectrophotometer, and RNA quality was evaluated with an Agilent Technologies 2100 Bioanalyzer®. Each reverse transcription was performed with 0.5 μg RNA using the Takara Primescript® kit, in a final volume of 10 μl. Primers for reverse transcription were equal mixtures of poly-T nucleotides and random hexamers. Negative controls (omitting the reverse transcriptase enzyme) were performed for each sample. 1/14th of the cDNA preparation was used for each triplicated qPCR reaction.
(§5) qPCR Ct values were analyzed using an in-house developed Microsoft Excel® macro file. Triplicate values were compared and outliers (values with a difference higher than 0.5 Ct to their nearest neighbor) were discarded. The number of conditions with an outlying value was always less than 10% of the total number of conditions. Ct values were converted to quantities relative to the maximum for each given gene. Selected reference genes were then analyzed for variance using the geNorm algorithm. All values were normalized with the olfactory tissue-specific genes Omp and Adcy3. β-Actin was used as a non-tissue-specific reference gene to control for differences in dissection between samples.
(§6) Mice (n=6) were exposed to 5% acetophenone or to a “neutral” control condition for 5 hours. An olfactory cDNA library corresponding to each animal was deep sequenced and the ratios of odorant receptor mRNA concentrations relative to controls were plotted (FIG. 3). […] Based on transcriptional downregulation levels observed by RNAseq following acetophenone exposure, a list of 26 candidate responsive ORs was determined (FIG. 3), that reached 74% decrease (Olfr145) or even over 80% (Olfr169) relative to controls. […] The transcript downregulation of 21 out of the 26 olfactory receptor candidates obtained by RNAseq was confirmed by qPCR.

[2] = tested on: olfr750
Description: as §1, §2, §3, §4, §5, §6

[3] = tested on: olfr1501
Description: as §1, §2, §3, §4, §5, §6

[4] = tested on: olfr378
Description: as §1, §2, §3, §4, §5, §6

[5] = tested on: olfr1448
Description: as §1, §2, §3, §4, §5, §6

[6] = tested on: olfr935
Description: as §1, §2, §3, §4, §5, §6

[7] = tested on: olfr229
Description: as §1, §2, §3, §4, §5, §6

[8] = tested on: olfr736
Description: as §1, §2, §3, §4, §5, §6

[9] = tested on: olfr1054
Description: as §1, §2, §3, §4, §5, §6

[10] = tested on: olfr922
Description: as §1, §2, §3, §4, §5, §6

[11] = tested on: olfr1135
Description: as §1, §2, §3, §4, §5, §6

[12] = tested on: olfr901
Description: as §1, §2, §3, §4, §5, §6

CC(=O)c1ccccc1 [acetophenone]
olfr30 candidate OR (RNAseq) confirmed by qPCR [1]: y | olfr750 candidate OR (RNAseq) confirmed by qPCR [2]: n | olfr1501 candidate OR (RNAseq) confirmed by qPCR [3]: y | olfr378 candidate OR (RNAseq) confirmed by qPCR [4]: n | olfr1448 candidate OR (RNAseq) confirmed by qPCR [5]: y | olfr935 candidate OR (RNAseq) confirmed by qPCR [6]: y | olfr229 candidate OR (RNAseq) confirmed by qPCR [7]: y | olfr736 candidate OR (RNAseq) confirmed by qPCR [8]: y | olfr1054 candidate OR (RNAseq) confirmed by qPCR [9]: y | olfr922 candidate OR (RNAseq) confirmed by qPCR [10]: y | olfr1135 candidate OR (RNAseq) confirmed by qPCR [11]: n | olfr901 candidate OR (RNAseq) confirmed by qPCR [12]: y
